In PubChem BioAssay (NCI):
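A five-concentration, 48-hour dose response in 96-well plates underlies each endpoint, interpolated linearly between surrounding concentrations. TGI: total growth inhibition.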

Assays:
Assay in all cases: NCI-60 cell line screen, 48 h
[1] = tested on: CCRF-CEM leukemia
[2] = tested on: EKVX NSCLC
[3] = tested on: HCT-15 colon
[4] = tested on: IGROV1 ovarian
[5] = tested on: MDA-MB-435
[6] = tested on: MDA-N
[7] = tested on: NCI-H226 lung
[8] = tested on: NCI-H460 lung
[9] = tested on: OVCAR-3 ovarian
[10] = tested on: OVCAR-5 ovarian
[11] = tested on: SR leukemia

Row | SMILES | TGI [1] [µM] | TGI [2] [µM] | TGI [3] [µM] | TGI [4] [µM] | TGI [5] [µM] | TGI [6] [µM] | TGI [7] [µM] | TGI [8] [µM] | TGI [9] [µM] | TGI [10] [µM] | TGI [11] [µM]
1 | CC(=O)OCC1OC(OCCCOP(=S)(OCCC#N)OCC2OC(n3ccc(N)nc3=O)C(OC(=O)c3ccccc3)C2OC(=O)c2ccccc2)C(OC(C)=O)C(OC(C)=O)C1OC(C)=O (stereo not given) | > 100 | > 100 | > 100 | > 100 | > 100 | > 100 | > 100 | > 100 | > 100 | > 100 | > 100
2 | COC(=O)C1CCC(=O)N1C(c1ccc2c(c1)OCO2)c1cc(OC)c(OC)c(OC)c1 (stereo not given) | > 100 | > 100 | > 100 | > 100 | > 100 | > 100 | > 100 | > 100 | > 100 | > 100 | > 100
3 | COc1ccc(C2=NOC(N)(c3ccc(OC)cc3)C2)cc1 (stereo not given) | > 100 | > 100 | > 100 | > 100 | > 100 | > 100 | > 100 | > 100 | > 100 | > 100 | > 100
4 | C=C1CC[C@@H](C)[C@](C)(CCc2ccoc2)C/C=C\C=C/1C(=O)O | 90.3 | > 100 | > 100 | > 100 | > 100 | 66.1 | > 100 | > 100 | 42.9 | > 100 | 59.2
5 | CN(CCCNC(=O)c1cc(-c2ccccc2)nc2ccccc12)CCCNC(=O)c1cc(-c2ccccc2)nc2ccccc12 | 17.6 | 17.2 | 12.2 | 13.7 | 3.17 | 3.28 | 10.7 | 3.81 | 9.14 | 4.81 | 12.3
6 | COc1ccc(CNc2cc(=O)n(C)c(=O)[nH]2)cc1 | > 100 | > 100 | > 100 | > 100 | > 100 | > 100 | > 100 | > 100 | > 100 | > 100 | > 100
7 | c1ccc(CC2COC(c3cccs3)=N2)cc1 (stereo not given) | > 100 | > 100 | > 100 | > 100 | > 100 | > 100 | > 100 | > 100 | > 100 | > 100 | > 100
8 | CC(C)(C)NC(=O)CCC1C(C(=O)NC(C)(C)C)C2(Cl)C(Cl)=C(Cl)C1(Cl)C2(Cl)Cl (stereo not given) | > 100 | > 100 | > 100 | > 100 | > 100 | > 100 | > 100 | > 100 | > 100 | > 100 | > 100
9 | CN(C)CCNC(=O)c1cccc2c(NC(CCC(N)=O)C(=O)O)c3ccccc3nc12 (stereo not given) | > 100 | 53.3 | 22.5 | 36.6 | 23.1 | 31.4 | 46.6 | 54.9 | > 100 | > 100 | > 100
10 | CCc1ccc2c(c1)N(CC(C)CN(C)C)c1ccccc1S2 (stereo not given) | 4.99 | 24.3 | 17.8 | 15 | 8.13 | 17.4 | 25.5 | 8.51 | 12.4 | 19.9 | 11.4
11 | CCN(CC)C1Oc2cc3c(cc2C(c2cccc(OC)c2OC)C1C)OCO3 (stereo not given) | 8.48 | 52.3 | > 100 | 29.3 | 45.6 | 50.5 | 9.24 | 17.7 | 9.97 | 48.6 | 3.3
12 | CCOC(=O)Cn1nnc2ccc(Nc3nc4ccccc4nc3-c3ccccc3)cc21 | > 100 | > 100 | > 100 | > 100 | > 100 | > 100 | > 100 | > 100 | > 100 | > 100 | > 100
13 | O=C(O)c1cc(CCc2cc(O)ccc2O)ccc1O | 71.4 | > 100 | > 100 | > 100 | > 100 | 27.1 | > 100 | > 100 | > 100 | > 100 | > 100
14 | O=c1[nH]nc(-c2ccccc2)n1O | > 100 | > 100 | > 100 | > 100 | > 100 | > 100 | > 100 | > 100 | > 100 | > 100 | > 100
15 | C=CCC1(C)CCCN(Cc2ccccc2)C1=O (stereo not given) | > 10 | > 10 | > 10 | 3.41 | > 10 | > 10 | > 10 | > 10 | > 10 | > 10 | > 10
16 | CC(C)/C(Cl)=N/OC(=O)Nc1ccc(Cl)c(Cl)c1 | 3.91 | 3.95 | 5.59 | 26.4 | 15.7 | 10.8 | 32.2 | 34 | 6.4 | 30.2 | > 100
17 | N#Cc1nc(C#N)n(S(=O)(=O)c2ccccc2)c1NS(=O)(=O)c1ccccc1 | > 100 | > 100 | > 100 | > 100 | > 100 | > 100 | > 100 | > 100 | > 100 | > 100 | > 100
18 | NNc1nnc(-c2nnc(NN)o2)o1 | > 10 | > 10 | > 10 | > 10 | > 10 | > 10 | > 10 | > 10 | > 10 | > 10 | > 10
19 | N#C/C(C(=S)NCc1ccccc1)=C(/N)N1CCCC1 | > 100 | > 100 | > 100 | > 100 | > 100 | > 100 | > 100 | > 100 | > 100 | > 100 | > 100
20 | CCCc1[nH]c2ccccc2c1-c1c(CCC)[nH]c2ccccc12 | > 100 | 30.9 | 23.5 | 32.4 | > 63.7 | 24.4 | 39.1 | 59.7 | 21.4 | 33.6 | > 100
21 | COc1cc(CNc2nc3ccccc3nc2C(=O)O)cc(OC)c1OC | > 100 | > 100 | > 100 | > 100 | > 100 | > 100 | > 100 | > 100 | > 100 | > 100 | > 100
22 | Clc1ccc2oc(CCc3ccccc3)nc2c1 | > 100 | > 100 | > 100 | > 100 | > 100 | > 100 | > 100 | > 100 | 85.1 | > 100 | > 100
23 | COc1cccc(/N=N/C(=NNC(=O)c2ccc(C)cc2)c2ccc(N(C)C)cc2)c1 | > 100 | > 100 | > 100 | > 100 | > 100 | > 100 | > 100 | > 100 | > 100 | > 100 | > 100
24 | COC(=O)C(Cc1c[nH]c2ccccc12)N=C1Nc2ccncc2S(=O)(=O)N1c1cccc(OC(C)C)c1 (stereo not given) | > 100 | > 100 | > 100 | > 100 | > 100 | > 100 | > 100 | > 100 | > 100 | > 100 | 79.7
25 | COc1ccc(C(=O)/C=C/c2ccc(OCC#N)cc2)cc1 | 81 | > 100 | 54.7 | > 10 | 59.3 | > 10 | 88.8 | 81.1 | > 100 | > 100 | 49.5
